The results in this text go back to patent US10463658B2, “Method of inhibiting FLT3 kinase” (AROG Pharmaceuticals, LLC, priority 2013, dated 2019).

As a reminder, the Kd is the free concentration of one partner at which half of the binding sites on the other are occupied at equilibrium, for simple one-to-one binding. One may read the IC50 as the concentration that inhibits the measured activity by half.

In one test the target is T1, FLT3 (ITD, D835V) (Homo sapiens, UniProt P36888, D835V, form not given).
T1 construct: fused on or other part: DNA tag / T7 phage display tag for qPCR detection
T1 sequence (P36888 1-993 D835V): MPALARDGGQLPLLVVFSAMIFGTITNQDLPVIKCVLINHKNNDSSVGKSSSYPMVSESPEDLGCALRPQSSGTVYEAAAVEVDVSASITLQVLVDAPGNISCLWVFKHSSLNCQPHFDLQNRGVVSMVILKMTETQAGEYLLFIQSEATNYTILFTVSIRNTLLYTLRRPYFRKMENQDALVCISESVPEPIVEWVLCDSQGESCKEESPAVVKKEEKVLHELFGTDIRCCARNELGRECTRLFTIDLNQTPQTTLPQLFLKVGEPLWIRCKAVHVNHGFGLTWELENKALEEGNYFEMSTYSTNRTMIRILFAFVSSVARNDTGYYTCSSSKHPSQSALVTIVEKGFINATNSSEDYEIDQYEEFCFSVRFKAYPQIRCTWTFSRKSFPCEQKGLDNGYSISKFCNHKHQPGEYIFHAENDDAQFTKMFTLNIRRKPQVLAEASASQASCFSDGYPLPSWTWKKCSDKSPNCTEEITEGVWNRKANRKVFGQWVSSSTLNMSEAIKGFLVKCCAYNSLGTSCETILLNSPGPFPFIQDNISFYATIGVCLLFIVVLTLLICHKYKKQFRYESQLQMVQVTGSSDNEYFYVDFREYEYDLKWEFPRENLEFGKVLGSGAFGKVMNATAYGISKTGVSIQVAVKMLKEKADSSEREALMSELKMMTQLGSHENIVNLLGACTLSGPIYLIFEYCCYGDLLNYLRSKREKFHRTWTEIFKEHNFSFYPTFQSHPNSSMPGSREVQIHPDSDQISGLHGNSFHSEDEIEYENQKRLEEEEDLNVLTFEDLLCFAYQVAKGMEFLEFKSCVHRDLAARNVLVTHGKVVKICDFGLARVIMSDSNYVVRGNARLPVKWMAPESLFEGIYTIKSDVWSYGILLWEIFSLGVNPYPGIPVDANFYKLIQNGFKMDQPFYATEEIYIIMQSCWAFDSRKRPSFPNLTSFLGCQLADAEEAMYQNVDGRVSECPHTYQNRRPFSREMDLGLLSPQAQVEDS
Briefly: KINOMEscan KdElect competitive binding assay, dual mutant FLT3 (ITD, D835V). Particulars: tosylate salt; read-out: Kd, FLT3 (ITD, D835V) double mutant. From the text: (§1) Competitive binding assay.
(§2) The lysates were then centrifuged and filtered.

A further test concerns the target T2, FLT3 N841I (Homo sapiens, UniProt P36888, N841I).
T2 construct: host or cells: E. coli BL21-derived host (T7 phage) or HEK-293
T2 sequence (P36888 610-943 N841I limits assumed): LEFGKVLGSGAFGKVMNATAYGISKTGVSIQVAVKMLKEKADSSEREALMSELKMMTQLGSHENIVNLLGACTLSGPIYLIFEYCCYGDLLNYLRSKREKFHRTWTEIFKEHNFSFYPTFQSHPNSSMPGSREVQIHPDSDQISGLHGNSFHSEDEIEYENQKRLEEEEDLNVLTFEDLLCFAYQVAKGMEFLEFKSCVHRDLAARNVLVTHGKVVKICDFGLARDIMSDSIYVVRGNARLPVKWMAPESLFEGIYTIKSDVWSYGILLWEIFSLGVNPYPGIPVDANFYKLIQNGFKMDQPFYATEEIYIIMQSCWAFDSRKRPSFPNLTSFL
Briefly: KINOMEscan KdElect competitive binding assay, FLT3 N841I. To be noted: tosylate salt; read-out: Binding Constant (Kd), FLT3 N841I.
Source text: as §1, §2

The subject of test [1] is Molm 13-RES-luc cells that expressed FLT3-ITD/D835Y. Briefly: MTT assay in tandutinib-resistant Molm 13-RES-luc cells. Particulars: Homo sapiens, tandutinib resistant Molm 13 cells, mean of 3 studies with 6 replicates each (n=18), read-out: IC50 pFLT3 (text: cell viability, MTT assay). The class given is cell-based. A general note: Formazan colour is commonly taken as a measure of viable cells.

In the next test the target is T3, FLT3 autoinhibited (Homo sapiens, UniProt P36888).
T3 construct: host or cells: E. coli BL21-derived host (T7 phage) or HEK-293
T3 sequence (P36888 564-993 limits assumed): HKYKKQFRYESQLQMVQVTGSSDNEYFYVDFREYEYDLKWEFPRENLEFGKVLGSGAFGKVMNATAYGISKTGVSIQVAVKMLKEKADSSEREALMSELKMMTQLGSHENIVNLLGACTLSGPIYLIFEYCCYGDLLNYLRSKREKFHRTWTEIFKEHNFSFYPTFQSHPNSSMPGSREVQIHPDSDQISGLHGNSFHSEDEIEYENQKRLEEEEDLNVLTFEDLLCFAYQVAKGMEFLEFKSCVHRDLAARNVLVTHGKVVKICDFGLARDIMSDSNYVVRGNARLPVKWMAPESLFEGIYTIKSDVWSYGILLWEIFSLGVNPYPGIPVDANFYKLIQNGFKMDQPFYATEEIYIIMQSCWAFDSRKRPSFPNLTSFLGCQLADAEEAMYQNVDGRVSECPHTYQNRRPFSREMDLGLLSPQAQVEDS
The test can be described thus: KINOMEscan KdElect competitive binding assay, autoinhibited FLT3. Particulars: tosylate salt; average Kd; read-out: Binding Constant (Kd), FLT3 autoinhibited.
Source text: as §1, §2

On to `COCCOc1ccc2c(c1)ncn2-c1ccc2cccc(N3CCC(N)CC3)c2n1` [CP-673,451], for which the Kd on FLT3 (ITD, D835V) was determined as 0.015 nM; at FLT3 N841I, 0.39 nM; at FLT3 autoinhibited, 18 nM. Moreover, the IC50 in test [1] came out at 3.3 nM.
